Source: patent publication US8404836B2, “3-phenyl acrylic acid compound activators of type PPAR receptors and pharmaceutical/cosmetic compositions comprised thereof” (Galderma Research & Development, priority 2007, dated 2013)

Experiments:
[1] = target: T1, PPARγ (Homo sapiens, UniProt P37231); assay: PPAR transactivation test in crossed curves (HeLN luciferase reporter), PPARγ; type: cell-based; details: HeLN cells stably transfected with Gal-hPPARγ and luciferase reporter; crossed curves vs reference agonist, Schild regression; read-out: PPAR gamma Kd app
T1 sequence (P37231 238-505 limits assumed): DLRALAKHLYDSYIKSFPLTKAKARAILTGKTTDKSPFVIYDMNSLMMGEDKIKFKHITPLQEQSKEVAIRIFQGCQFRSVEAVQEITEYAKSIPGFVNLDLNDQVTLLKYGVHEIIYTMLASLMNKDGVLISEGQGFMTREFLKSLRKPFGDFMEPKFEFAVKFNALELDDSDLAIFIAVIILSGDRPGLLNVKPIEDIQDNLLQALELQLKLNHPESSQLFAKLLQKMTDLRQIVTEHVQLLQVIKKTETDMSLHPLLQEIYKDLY
Method: (§1) Activation of the PPAR receptors by an agonist (activator) in HeLN cells leads to the expression of a reporter gene, luciferase, which, in the presence of a substrate, generates light. The modulation of the PPAR receptors is measured by quantifying the luminescence produced after incubation of the cells in the presence of a reference agonist. The ligands will displace the agonist from its site. The activity is measured by quantifying the light produced. This measurement makes it possible to determine the modulating activity of the compounds according to the invention by determining the constant representing the affinity of the molecule for the PPAR receptor. This value, which can fluctuate according to the basal activity and expression of the receptor, is called apparent Kd (KdApp, nM).
(§2) To determine this constant, “crossed curves” of the test product versus a reference agonist are carried out in a 96-well plate: 10 concentrations of the test product plus a 0 concentration are arranged in rows, and 7 concentrations of the agonist plus a 0 concentration are arranged in columns. This is 88 measurement points for 1 product and 1 receptor. The 8 remaining wells are used for repeatability controls.
(§3) Measurements are also carried out for the total agonist controls with the same products.
(§4) The HeLN cell lines used are stable transfectants containing the plasmids ERE-βGlob-Luc-SV-Neo (reporter gene) and PPAR (α, δ, γ) Gal-hPPAR. These cells are sown in 96-well plates at a rate of 10 000 cells per well in 100 μl of DMEM medium without phenol red and supplemented with 10% of delipidated calf serum. The plates are then incubated at 37° C., 7% CO2 for 16 hours.
(§5) The various dilutions of the test products and of the reference ligand are added at a rate of 5 μl per well. The plates are then incubated for 18 hours at 37° C., 7% CO2.
(§6) The culture medium is removed by inverting and 100 μl of a 1:1 mixture PBS/Luciferine is added to each well. After 5 minutes, the plates are read with the luminescence reader.

[2] = target: T2, PPARδ (Homo sapiens, UniProt Q03181); assay: PPAR transactivation test in crossed curves (HeLN luciferase reporter), PPARδ; type: cell-based; details: HeLN cells stably transfected with Gal-hPPARδ and luciferase reporter; crossed curves vs reference agonist, Schild regression; read-out: PPARs delta Kd app
T2 sequence (Q03181 171-441 limits assumed): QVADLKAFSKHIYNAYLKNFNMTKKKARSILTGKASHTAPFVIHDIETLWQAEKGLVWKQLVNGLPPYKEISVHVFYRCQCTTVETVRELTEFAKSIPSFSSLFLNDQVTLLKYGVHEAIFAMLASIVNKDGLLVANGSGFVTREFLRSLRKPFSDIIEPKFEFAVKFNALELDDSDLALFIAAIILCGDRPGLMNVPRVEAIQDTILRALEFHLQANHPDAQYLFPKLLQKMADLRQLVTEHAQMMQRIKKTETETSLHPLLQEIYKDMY
Method: as §1, §2, §3, §4, §5, §6
(§7) These AC50 are used for calculating the Schild regression by plotting a straight line corresponding to the Schild equation (“Quantitation in receptor pharmacology” Terry P. Kenakin, Receptors and Channels, 2001, 7, 371-385) which provides the values of Kd app (in nM).

[3] = target: T3, PPARα (Homo sapiens, UniProt Q07869); assay: PPAR transactivation test in crossed curves (HeLN luciferase reporter), PPARα; type: cell-based; details: HeLN cells stably transfected with Gal-hPPARα and luciferase reporter; crossed curves vs reference agonist, Schild regression; read-out: PPAR alpha Kd app
T3 sequence (Q07869 200-468 limits assumed): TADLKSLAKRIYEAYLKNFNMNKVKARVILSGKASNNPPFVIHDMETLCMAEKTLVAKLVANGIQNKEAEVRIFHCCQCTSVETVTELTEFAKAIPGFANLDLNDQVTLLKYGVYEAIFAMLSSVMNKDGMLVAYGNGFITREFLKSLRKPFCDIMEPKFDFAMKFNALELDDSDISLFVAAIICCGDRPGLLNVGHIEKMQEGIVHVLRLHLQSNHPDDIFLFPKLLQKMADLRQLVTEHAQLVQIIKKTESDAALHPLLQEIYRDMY
Method: as §1, §2, §3, §4, §5, §6, §7

| Compound | melting point | Kd [1] | Kd [2] | Kd [3] |
| --- | --- | --- | --- | --- |
| CCCCS(=O)(=O)Oc1ccc(CCOc2ccc(/C=C(\OCC)C(=O)O)cc2OC)cc1 [Example 1, (Z)-3-(4-{2-[4-(butane-1-sulfonyloxy)-phenyl]-ethoxy}-3-methoxy-phenyl)-2-ethoxy-acrylic acid] | 94 °C | 8 nM | – | – |
| CCCCOc1cc(/C=C(\OCC)C(=O)O)ccc1CCCc1ccc(OS(=O)(=O)CCCC)c(OC)c1 [Example 3, (Z)-3-(4-{3-[4-(butane-1-sulfonyloxy)-3-methoxy-phenyl]-propyl}-3-butoxy-phenyl)-2-ethoxy-acrylic acid] | – | 15 nM | 250 nM | 60 nM |
| CCCCOc1cc(/C=C(\OCC)C(=O)O)ccc1OCCc1ccc(OS(=O)(=O)CCCC)cc1 [Example 6, (Z)-3-(4-{2-[4-(butane-1-sulfonyloxy)-phenyl]-ethoxy}-3-butoxy-phenyl)-2-ethoxy-acrylic acid] | – | 2 nM | – | 120 nM |
| CCCCOc1cc(/C=C(\OCC)C(=O)O)ccc1OCCc1ccc(OS(C)(=O)=O)c(OC)c1 [Example 7, (Z)-3-{3-butoxy-4-[2-(4-methanesulfonyloxy-3-methoxy-phenyl)-ethoxy]-phenyl}-2-ethoxy-acrylic acid] | 97 °C | 15 nM | – | 250 nM |
| CCCCOc1cc(/C=C(\OCC)C(=O)O)ccc1OCCc1ccc(OS(=O)(=O)CCCC)c(OC)c1 [Example 8, (Z)-3-(4-{2-[4-(butane-1-sulfonyloxy)-3-methoxy-phenyl]-ethoxy}-3-butoxy-phenyl)-2-ethoxy-acrylic acid] | – | 15 nM | 2000 nM | 120 nM |
| CCCCOc1cc(/C=C(\OCC)C(=O)O)ccc1OCCc1ccc(OS(=O)(=O)CCCC)cc1OC [Example 9, (Z)-3-(4-{2-[4-(butane-1-sulfonyloxy)-2-methoxy-phenyl]-ethoxy}-3-butoxy-phenyl)-2-ethoxy-acrylic acid] | – | 8 nM | – | 2000 nM |
| CCCCOc1cc(/C=C(\OCC)C(=O)O)ccc1OCCc1ccc(OS(C)(=O)=O)cc1OC [Example 10, (Z)-3-{3-butoxy-4-[2-(4-methanesulfonyloxy-2-methoxy-phenyl)-ethoxy]-phenyl}-2-ethoxy-acrylic acid] | 112 °C | – | – | – |
| CCCCOc1cc(/C=C(\OCC)C(=O)O)ccc1OCCc1ccc(OCC)c(F)c1 [Example 11, (Z)-3-{3-butoxy-4-[2-(4-ethoxy-3-fluoro-phenyl)-ethoxy]-phenyl}-2-ethoxy-acrylic acid] | 119 °C | – | – | – |
| CCCCCOc1ccc(CCOc2ccc(/C=C(\OCC)C(=O)O)cc2OCCCC)cc1F [Example 12, (Z)-3-{3-butoxy-4-[2-(3-fluoro-4-pentyloxy-phenyl)-ethoxy]-phenyl}-2-ethoxy-acrylic acid] | 102 °C | – | – | – |
| CCCCOc1cc(/C=C(\OCC)C(=O)O)ccc1OCCc1ccc(OS(=O)(=O)CCCC)c(F)c1 [Example 13, (Z)-3-(4-{2-[4-(butane-1-sulfonyloxy)-3-fluoro-phenyl]-ethoxy}-3-butoxy-phenyl)-2-ethoxy-acrylic acid] | 99 °C | 8 nM | 2000 nM | 250 nM |
| CCCCCOc1ccc(CCOc2ccc(/C=C(\OCC)C(=O)O)cc2OCCCC)cc1Cl [Example 15, (Z)-3-{3-butoxy-4-[2-(3-chloro-4-pentyloxy-phenyl)-ethoxy]-phenyl}-2-ethoxy-acrylic acid] | 95 °C | – | – | – |
| CCCCOc1cc(/C=C(\OCC)C(=O)O)ccc1OCCc1ccc(OS(C)(=O)=O)c(Cl)c1 [Example 16, (Z)-3-{3-butoxy-4-[2-(3-chloro-4-methanesulfonyloxy-phenyl)-ethoxy]-phenyl}-2-ethoxy-acrylic acid] | 113 °C | – | – | – |
| CCCCOc1cc(/C=C(\OCC)C(=O)O)ccc1OCCc1ccc(OS(=O)(=O)CCCC)c(Cl)c1 [Example 17, (Z)-3-(4-{2-[4-(butane-1-sulfonyloxy)-3-chloro-phenyl]-ethoxy}-3-butoxy-phenyl)-2-ethoxy-acrylic acid] | 80 °C | 8 nM | 1000 nM | 60 nM |
| CCO/C(=C\c1ccc(OCCc2ccc(OCC)cc2)c(OC)c1)C(=O)O [Example 19, (Z)-2-ethoxy-3-{4-[2-(4-ethoxy-phenyl)-ethoxy]-3-methoxy-phenyl}-acrylic acid] | 121 °C | – | – | – |
| CCCCOc1cc(/C=C(\OCC)C(=O)O)ccc1OCCc1ccc(NS(=O)(=O)CCCC)cc1 [Example 22, (Z)-3-(4-{2-[4-(butane-1-sulfonylamino)-phenyl]-ethoxy}-3-butoxy-phenyl)-2-ethoxy-acrylic acid] | 164 °C | – | – | – |
| CCCCOc1cc(/C=C(\OCC)C(=O)O)ccc1OCCc1ccc(N(C)S(C)(=O)=O)cc1 [Example 23, (Z)-3-(3-butoxy-4-{2-[4-(methanesulfonyl-methyl-amino)-phenyl]-ethoxy}-phenyl)-2-ethoxy-acrylic acid] | 112 °C | – | – | – |
